US11969408B2, “Method for improving mitophagy in subjects” (Amazentis SA, priority 2017, dated 2024)

Assays:
Assay type in all cases: in vivo, human
[1] = system: genes associated with autophagy and mitophagy, mitochondrial biogenesis and dynamics, and fatty acid oxidation in skeletal muscle biopsies; test: rtPCR analysis of gene expression levels in skeletal muscle biopsies
Procedure: Muscle biopsies were collected before the meal from the vastus lateralis muscle of the right leg in order to perform ex vivo measurements. Muscle biopsies were collected on Day −1 and Day 28 at pre-dose under fasted state using the Bergström biopsy needle technique. The minimal amount of each muscle tissue sample was approximately 50 mg. One third of the tissue was used for gene expression (≈50 mg), and was further divided into two equal portions: one portion for RNA analysis (≈25 mg) and one portion for DNA analysis (≈25 mg), both in a Safe-lock Tubes 2.0 ml, Eppendorf (part no. 0030.120.094). Muscle tissue was snap frozen using liquid nitrogen immediately after collection and further, long term storage will be in a −80° C. freezer. The mRNA was analysed by microarray. Quantification of mtDNA over nuclear DNA provided another measure of mitochondrial abundance. The shipment was done in dry ice by specialized carrier. Temperatures were monitored using data logger during all transport. The method used has been validated according to good clinical laboratory practices (GCLP) and ICH guideline Q2(R1) (Validation of analytical procedures) by the corresponding service provider. Every sample was analysed in at least technical duplicates for housekeeping and target genes. A Ct value (threshold cycle), corresponding to the cycle at which the fluorescence signal reaches the amplification phase, was determined for every technical replicate and gene. The method of the 2^−ΔΔCt (Livak, K., J., and Schmittgen, T. D., Methods, 2001) was then applied to determine the relative expression of each target gene. rtPCR analysis was carried out on skeletal muscle biopsies of human subjects administered urolithin A or placebo daily for 28 days to determine the expression levels of specific genes associated with autophagy and mitophagy (LAMP2, ULK1, PIK3C3, MAP1LC3B, SQSTM1, PARK2), mitochondrial biogenesis and dynamics (SIRT1, PPARGC1A, PPARA, ESRRA, MFN1, MFN2, OPA1), and fatty acid oxidation (CPT1B, FABP3). FIG. 6 provides bar graphs showing the fold-change in gene expression levels from day −1 to day 28 for each gene for patients administered 250 mg/day or 1000 mg/day urolithin A, over placebo. The bar graphs represent gene expression data, expressed as a percentage of change over placebo, i.e. a value of 0% means that there is no difference between the dose and the placebo group while a value of 100% means that there is an increase in 100% over placebo value.

[2] = Plasma pharmacokinetics after 28 day daily oral dosing (clinical study Part B)
Procedure: Part B: The study was a double-blinded, randomized, multiple ascending dose study in 36 healthy elderly male and female volunteers. Each subject was randomised to receive study product or placebo for 28 days. Part B: Repeated oral dose administration from day 1 to day 28 according to the randomization. The administration took place around 8:00 am with around 200 mL tap water, in a sitting position, and under fasting conditions. Cohort 3 (12 subjects): 1000 mg urolithin A (9 subjects) or placebo (3 subjects) soft gel capsule formulation for 28 days. After multiple dosing: Cmax, tmax, AUC0-24h, t1/2 From the plasma concentration-time data, the following pharmacokinetic parameters will be determined, as data permit using non-compartmental methods: maximum observed plasma concentration (Cmax) (ng/mL), time at which maximum observed plasma concentration (tmax) (h), area under the plasma concentration-time curve AUC(0-24h) (ng/mL*h) and AUC(0-∞) (ng/mL*h), and apparent terminal phase half-life (t1/2) (h). Blood sampling was performed for urolithin A concentration measurements at the exact timepoints with an authorised time window described in the table below: At each time point indicated in the table, a 6 mL blood sample was drawn into K2-EDTA coated tube. The blood samples were gently inverted a few times for complete mixing with the anticoagulant. The exact time of sample collection was recorded on the eCRF. Within 30 minutes following blood collection, each blood sample was centrifuged at 1500 g for 10 minutes at 4° C. From the plasma concentration-time data, the following pharmacokinetic parameters were determined, as data permit using non-compartmental methods: maximum observed plasma concentration (Cmax), time at which maximum observed plasma concentration (tmax), area under the plasma concentration-time curve AUC(0-24h) and AUC(0-∞), and apparent terminal phase half-life (t1/2).

[3] = system: muscle and mitochondrial gene sets in vastus lateralis; test: Microarray analysis / Gene Set Enrichment Analysis of skeletal muscle biopsies
Procedure: Muscle biopsies were collected on Day −1 and Day 28 at pre-dose under fasted state using the Bergström biopsy needle technique. The minimal amount of each muscle tissue sample was approximately 50 mg. One third of the tissue was used for gene expression (≈50 mg), and was further divided into two equal portions: one portion for RNA analysis (≈25 mg) and one portion for DNA analysis (≈25 mg), both in a Safe-lock Tubes 2.0 ml, Eppendorf (part no. 0030.120.094). Muscle tissue was snap frozen using liquid nitrogen immediately after collection and further, long term storage will be in a −80° C. freezer. The mRNA was analysed by microarray. Quantification of mtDNA over nuclear DNA provided another measure of mitochondrial abundance. The shipment was done in dry ice by specialized carrier. Temperatures were monitored using data logger during all transport. Gene expression on available remaining muscle tissues samples was performed by microarrays. […] Microarray analysis was carried out on skeletal muscle biopsies of human subjects administered urolithin A or placebo daily for 28 days. Approximately 30,000 gene transcripts were quantified by microarray in muscle biopsies and compared (day 28 vs. day −1). Gene Set Enrichment Analysis was conducted on 6166 gene sets. […]

[4] = 1000 mg/day for 28 days, over placebo, P<0.05 Dunnett post-hoc

O=c1oc2cc(O)ccc2c2ccc(O)cc12 [Urolithin A]
Ulk1 gene expression change ([1]; 1000 mg vs placebo, ANOVA p=0.0524, Dunnett p=0.0180): close to significant | Ppargc1a gene expression change ([1]; 1000 mg vs placebo, ANOVA p=0.1026, Dunnett p=0.0673): close to significant | Cpt1b gene expression change ([1]; 1000 mg vs placebo, ANOVA p=0.1362, Dunnett p=0.0805): close to significant | Park2 gene expression change ([1]; 1000 mg vs placebo, ANOVA p=0.2504, Dunnett p=0.1500): close to significant | expression of genes associated with autophagy, mitochondrial function, and/or fatty acid oxidation ([1]; 1000 mg/day for 28 days, day 28 vs day −1, over placebo): upregulation | FABP3 gene expression (fatty acid oxidation-related) [1, 4]: significant upregulation | LAMP2 gene expression (autophagy/mitophagy-related) [1, 4]: significant upregulation | pharmacokinetic profile over the 28 day period (mean plasma concentrations 24 h after previous dose) ([2]; 500 mg daily dosage, days 0, 7, 14, 28, 29): stable | Cmax ([2]; both sexes, human, plasma, day 28, daily oral 1000 mg urolithin A for 28 days): 1.97 ng/mL | AUC ([2]; both sexes, human, plasma, day 28, daily oral 1000 mg urolithin A for 28 days, read-out: AUC out to 24 hours): 17.5 ng·h/mL | enrichment in GO_MITOCHONDRION genes expression ([3]; 1000 mg urolithin A group vs placebo group, 28 day treatment): significant | mitochondrial and muscle gene sets expression (normalized enrichment score) ([3]; 1000 mg/day for 28 days, day 28 vs day −1, compared with placebo, FDR<0.25): significantly upregulated
